Assay results taken from patent publication US20070123508A1, “PAR2-modulating compounds and their use” (priority 2005, published 2007).

Target: T1, human PAR2 (Homo sapiens, UniProt P55085)
T1 construct: expressed in transfected cells; host or cells: NIH3T3 cells, transiently transfected; receptor in pSI-derived mammalian expression vector
T1 sequence (P55085 26-397): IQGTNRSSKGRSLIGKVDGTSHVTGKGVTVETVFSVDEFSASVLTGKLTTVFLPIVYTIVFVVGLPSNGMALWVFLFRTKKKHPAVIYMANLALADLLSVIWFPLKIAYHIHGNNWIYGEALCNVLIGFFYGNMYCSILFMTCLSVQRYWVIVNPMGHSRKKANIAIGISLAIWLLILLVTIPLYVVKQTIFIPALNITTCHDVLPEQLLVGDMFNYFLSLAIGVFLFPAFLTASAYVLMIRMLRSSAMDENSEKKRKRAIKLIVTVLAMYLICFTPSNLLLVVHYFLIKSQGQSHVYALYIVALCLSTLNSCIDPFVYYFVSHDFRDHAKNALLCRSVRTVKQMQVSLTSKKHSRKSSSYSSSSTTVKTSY
Test: Receptor Selection and Amplification Technology (R-SAT) functional receptor assay
Assay type: cell-based
Settings: for EC50: NIH3T3 cells transfected with PAR2, negative log of EC50 (molar); for Emax: percent maximum activation relative to the ligand SLIGRL, read-out: % Efficacy
Procedure: The functional receptor assay, Receptor Selection and Amplification Technology (R-SAT), was used to investigate the pharmacological properties of known and novel PAR2 compounds. R-SAT is disclosed in U.S. Pat. Nos. 5,707,798, 5,912,132, and 5,955,281, all of which are hereby incorporated herein by reference in their entirety, including any drawings.
Briefly, NIH3T3 cells were grown in 96 well tissue culture plates to 70-80% confluence. Cells were transfected for 16-20 h with plasmid DNAs using Polyfect (Qiagen Inc.) using the manufacturer's protocols. R-SATs were generally performed with 4 ng/well of receptor and 20 ng/well of β-galactosidase plasmid DNA. All receptor constructs used were in the pSI-derived mammalian expression vector (Promega Inc). The PAR2 gene was amplified by PCR from genomic DNA using oligodeoxynucleotide primers based on the published sequence (GenBank Accession # Z49993 and Z49994). For large-scale transfections, cells were transfected for 16-20 h, then trypsinized and frozen in DMSO. Frozen cells were later thawed, plated at ˜10,000 cells per well of a 96 half-area well plate that contained drug. With both methods, cells were then grown in a humidified atmosphere with 5% ambient CO2 for five days. Media was then removed from the plates and marker gene activity was measured by the addition of the β-galactosidase substrate o-nitrophenyl β-D-galactopyranoside (ONPG) in PBS with 0.5% NP-40. The resulting colorimetric reaction was measured using a spectrophotometric plate reader (Titertek Inc.) at 420 nm. All data was analyzed using the XLFit (IDBSm) computer program. Efficacy is the percent maximum activation compared to activation by a control compound (SLIGRLm). pEC50 is the negative of the log(EC50), where EC50 is the calculated as a molar concentration (M) that produces 50% maximal activation.
These experiments provide a molecular profile, or fingerprint, for each of these agents at the human PAR2.
Efficacy is relative to the ligand SLIGRL.

SMILES	EC50 [nM]	Emax [%]
CC(=NNC(=O)C1C(=O)NCC1c1ccccc1)c1cccc(Br)c1 (mixture of isomers) [Compound 3, 2-Oxo-4-phenyl-3-pyrrolidinecarboxylic acid [1-(3-bromo-phenyl)-(E/Z)-ethylidene]-hydrazide]	39.8	134
CC(=NNC(=O)C1C(=O)NCC1c1ccccc1)c1ccc(Br)s1 (mixture of isomers) [Compound 4, 2-Oxo-4-phenyl-3-pyrrolidinecarboxylic acid [1-(5-bromo-thiophen-2-yl)-(E/Z)-ethylidene]-hydrazide]	631	87
CC(=NNC(=O)C1C(=O)NCC1c1ccccc1)c1cccs1 (mixture of isomers) [Compound 5, 2-Oxo-4-phenyl-3-pyrrolidinecarboxylic acid [1-(thiophen-2-yl)-(E/Z)-ethylidene]-hydrazide]	1580	52
CC(=NNC(=O)C1C(=O)NCC1c1ccccc1)c1cc(Br)cs1 (mixture of isomers) [Compound 6, 2-Oxo-4-phenyl-3-pyrrolidinecarboxylic acid [1-(4-bromo-thiophen-2-yl)-(E/Z)-ethylidene]-hydrazide]	398	109
CC(=NNC(=O)C1C(=O)NCC1c1ccccc1)c1cncc(Br)c1 (mixture of isomers) [Compound 7, 2-Oxo-4-phenyl-3-pyrrolidinecarboxylic acid [1-(5-bromo-pyridine-3-yl)-(E/Z)-ethylidene]-hydrazide]	794	106
